This experiment deals with mushroom tyrosinase (Agaricus bisporus, UniProt C7FF04). As to the kind of experiment: Tyrosinase inhibitory assay. It is filed as biochemical.
Where [1] appears, read: percent inhibition at 500 μM, versus carvacrol (1).

These results are taken from paper PMC7059125 (Bioorganic & medicinal chemistry letters, 2018).

The structures appear in SMILES notation.

As a reminder, the inhibition is how much of the control response was suppressed. A higher inhibition goes with strong suppression.

Chain of mushroom tyrosinase (C7FF04 1-392): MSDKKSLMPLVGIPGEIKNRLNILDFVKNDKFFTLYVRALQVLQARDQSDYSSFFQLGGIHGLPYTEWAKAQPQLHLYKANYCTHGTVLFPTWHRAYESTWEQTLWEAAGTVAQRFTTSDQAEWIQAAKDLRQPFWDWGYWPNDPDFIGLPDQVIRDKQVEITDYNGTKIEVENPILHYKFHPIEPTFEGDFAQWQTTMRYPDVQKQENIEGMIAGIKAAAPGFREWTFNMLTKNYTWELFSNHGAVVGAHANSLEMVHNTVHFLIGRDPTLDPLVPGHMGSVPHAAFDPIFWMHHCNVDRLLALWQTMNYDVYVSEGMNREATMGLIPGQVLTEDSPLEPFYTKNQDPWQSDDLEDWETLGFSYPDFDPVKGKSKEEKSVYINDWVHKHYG

For the compound `CCOc1cc(C(C)C)ccc1C` [Compound 3, ethyl carvacrol], the “fold increase in activity relative to carvacrol” value under setting [1] is 1.6 fold.
Turning to `CCOc1cc(C(C)C)c(C(=O)CCC(=O)O)cc1C` [Compound 5], the “fold decrease in activity relative to carvacrol” value under setting [1] is listed as 2.1 fold.
`CCCCOC(=O)CCC(=O)c1cc(C(C)C)c(OCC)cc1C` [Compound 18] registered an inhibition at 500 µM of 100 ± 3.9%.
